Consider three compounds from patent US20260125428A1, “SYNTHETIC TRIPLEX PEPTIDE NUCLEIC ACID-BASED INHIBITORS FOR CANCER THERAPY” (University of Connecticut, priority 2022, published 2026).

Data set [1] relates to U2932 cells. Briefly: Viability of U2932 cells, combination of PNAs with HDAC inhibitors and other drugs. How it is done:
FIGS. 9A-D show cell viability after treatment with indicated PNAs. (9A) The viability of U2932 cells after treatment with γPNA1-NLS (8 μM), romidepsin (10 nM) and combination of γPNA1-NLS with romidepsin over 96 hours. (9B) The viability of U2932 cells after treatment with γPNA2-NLS (8 μM), romidepsin (10 nM) and combination of γPNA2-NLS with romidepsin over 96 hours. (9C) Fold change in C-Myc levels after combination of γPNA1-NLS and γPNA2-NLS with romidepsin in comparison to only romidepsin treatment. (9D) Fold change in BCL2 levels after combination of γPNA1-NLS and γPNA2-NLS with romidepsin in comparison to only romidepsin treatment.
FIGS. 10A-F show the viability of U2932 cells after indicated treatment. (10A) Viability of U2932 cells after treatment with γPNA2-NLS […], vorinostat (2.5 μM) and combination of γPNA2-NLS with vorinostat over 96 hours. (10B) The viability of U2932 cells after treatment with γPNA2-NLS (8 μM), valproic acid (2 mM) and combination of γPNA2-NLS with valproic acid over 96 hours. […] (10E) The viability of U2932 cells after treatment with CHOP (cyclophosphamide, vincristine, doxorubicin, prednisone) and combination of γPNA2-NLS with CHOP at different doses.
Cell viability: U2932 and Raji cells were seeded in 96 well plates at 20,000 cells/well. PNAs were added to the media at different concentrations (1, 2, 4, and 8 μM). […] The cell viability was then measured via trypan blue staining on day 1, 2, and 4.

The test system of data set [2] is C-Myc oncogene. Briefly: Gene expression (RT-PCR) of C-Myc and downstream targets in U2932 cells. The format is cell-based, human. To be noted: RT-PCR, 24 h, 8 μM. How it is done: (§1) FIGS. 4A-F show effect of cellular uptake of indicated PNAs. (4A) Expression levels of C-Myc oncogene in U2932 (DLBCL), Raji and Daudi cells (Burkitt's lymphoma) in comparison to the peripheral blood mononuclear cells (PBMC). (4B) Cell viability of U2932 cells after 24 h treatment with indicated PNAs at different doses. (4C) Cell viability of Raji cells after 24 h treatment with indicated PNAs at different doses. (4D) Gene expression levels of C-Myc oncogene and its downstream targets including MCL1 and EZH2 in U2932 cells after 24 h of treatment with γPNA1-NLS, γPNA2-NLS, and ScrγPNA4-NLS at 8 μM. (4E) Gene expression levels of C-Myc oncogene and its downstream targets including BCL2 and EZH2 in Raji cells after 24 h of treatment with γPNA1-NLS, γPNA2-NLS, and ScrγPNA4-NLS at 8 μM. (4F) Gene expression levels of C-Myc in U2932 cells after 24 h treatment with γPNA2-NLS and ScrγPNA4-NLS at indicated doses.
(§2) Gene expression: The levels of mRNA were measured in different cell lines using real time-polymerase chain reaction (RT-PCR). Both untreated (PBMC, U2932, Raji, Daudi) and PNA treated lymphoma cells were collected at the end of treatment. Total RNA was extracted using Qiagen RNeasy® kit (USA) and concentration was measured by Nanodrop™. cDNA was synthesized using high capacity cDNA reverse transcription kit (Applied Biosystem, USA) following the recommended cycling conditions. Taqman® gene expression assay for C-Myc, EZH2, BCL2, MCL1 and GAPDH were used to amplify the respective mRNAs using the specified cycling conditions in the CFX Real-Time PCR detection system. GAPDH was used as the reference gene and fold change in mRNA expression was obtained by normalizing against the untreated cells or cells treated with HDAC inhibitors.

Data set [3] concerns C-Myc oncogene. In words: Gene expression (RT-PCR) in U2932 cells after combination treatment. The format is cell-based, human. How it is done:
as §2

Data set [4] deals with C-Myc oncogene. In words: Gene expression (RT-PCR) of C-Myc and downstream targets in Raji cells. The format is cell-based, human. The following applies: 24 h, 8 μM. How it is done: as §1, §2
For data set [5], the system named is U2932 derived xenografts. Briefly: Tumor growth and survival study in U2932 derived xenograft mice. The format is in vivo. The following applies: 5 mg/kg systemic on day 1, 4, 7, and 10. How it is done: FIGS. 7A-C show survival data of mice after systemic administration of indicated PNAs. (7A) Graph representing the tumor volume of U2932 xenografts after systemic treatment with indicated PNAs (n≥4 mice per group). PNAs were administered systemically on day 1, 4, 7, and 10 (n≥4 mice per group). (7B) The survival of U2932 derived xenograft mice after treatment with γPNA2-NLS, γPNA3, and ScrγPNA4-NLS at 5 mg/kg dose in comparison to the control (saline) mice. (7C) Complete blood count analysis of mice from different groups at the end of the study. RBC: red blood cells; WBC: white blood cells; HGB: hemoglobin; PLT: platelets; HCT: hematocrit; MCH: […]. (D) Blood chemistry analysis of mice from different groups at the end of the study. ALT: alanine transaminase; AST: aspartate transaminase; BUN: blood urea nitrogen; LDH: Lactate dehydrogenase. Results are presented as mean±SEM (n≥4).
In vivo studies in xenograft mice model: U2932 derived xenografts were generated by implanting 10 million cells subcutaneously on the lower right flank of the female NSG mice (NOD.Cg-Prkdc^scidIl2rg^tm1Wj1/SzJ, #005557, Jackson Laboratories, USA) of 5-6 weeks. The mice were maintained in the animal care facility at the University of Connecticut following the required Institutional Animal Care and Use Committee guidelines (IACUC). Mice developed palpable tumors after 3-4 weeks of implantation. Tumor dimensions including length (l), breadth (b), and height (h) were measured using a caliper and volume was calculated using the formula for ellipsoid (0.5236×lbh).
Survival study: Mice bearing tumors about 100-150 mm^3 were divided into 4 groups. Mice were treated with either γPNA2-NLS, γPNA3, Scr-γPNA4-NLS, or saline. PNAs were administered at 5 mg/kg dose on day 1, 4, 7, and 10. The change in tumor volume was measured every day. Mice were euthanized when the tumor volume reached 2000 mm^3. Blood was collected via cardiac punter in 1.5 ml tubes containing 0.5 M EDTA. Organs including tumor, liver, kidney, spleen, heart and lung were collected. Tumor fraction and all organs were kept in 10% formalin and submitted for histology. The complete blood count analysis was performed on the collected blood samples using Sysmex CBC analyzer. Plasma was separated from the blood samples and submitted to Antech diagnostic for blood chemistry analysis to quantify the levels of alanine transaminase, lactate dehydrogenase, aspartate transaminase and blood urea nitrogen.

As to `C/C=C1\NC(=O)[C@H]2CSSCC/C=C/[C@H](CC(=O)N[C@H](C(C)C)C(=O)N2)OC(=O)[C@H](C(C)C)NC1=O` [Romidepsin, reference compound], the cytotoxicity at 0.01 µM in data set [1] (Homo sapiens, U2932, 96 h, read-out: decrease in viability, alone) came out at 60%.

As for “JJJJTTJJ-OOO-CCTTCCCCACCCTCCCCACCCTC-K-OOO-VKRKKKP (gamma PNA tail clamp; linkers; NLS peptide; misc_feature 1 JJJJTTJJ-linker- is covalently linked to the backbone, wherein J is pseudoisocytosine and the linker is 11-Amino-3,6,9-Trioxaundecanoic Acid (DCHA), represented as -OOO-; misc_feature 23 -K-linker-SEQ ID NO: 5 is covalently linked to the backbone, wherein the linker is 11-Amino-3,6,9-Trioxaundecanoic Acid (DCHA), represented as -OOO-; modified_base 1..23 OTHER; peptide nucleic acid) [γPNA1-NLS]”, in data set [2], the “change in levels of C-Myc (in words)” value is reported as “did not observe any change in levels of C-Myc”; the “levels of downstream targets MCL1 and EZH2” value was “no change in their levels”. In data set [3] (day 4), the “BCL-2 levels, combination with romidepsin in comparison to only romidepsin” value is listed as “reduced levels”. The “decrease in C-Myc levels, combination with romidepsin compared with only romidepsin” value in data set [3] (day 4, PNA 8 uM, romidepsin 10 nM) was “approximately 50%”. Also, the “combination effect with romidepsin on viability (in words)” value in data set [1] (U2932 cells, romidepsin 10 nM, PNA 8 uM) is listed as “synergistic activity”. Moreover, the “decrease in U2932 cell viability, combination with romidepsin” value in data set [1] (romidepsin 10 nM pretreatment 24 h, PNA 8 uM, day 4) is listed as “approximately 80%”. Also, in data set [4], the “change in levels of C-Myc (in words)” value is recorded as “did not observe any change in levels of C-Myc”; the “levels of downstream targets BCL2 and EZH2” value is “no change in their levels”.

As for “X3TCCCTCCCTCCGTTCTTTTTCCCX4 (JJJTJJJT linker N-term; C-terminal lysine; gammaPNA; misc_feature 1 JJJTJJJT-linker- is covalently linked to the backbone, wherein J is pseudoisocytosine and the linker is 11-Amino-3,6,9-Trioxaundecanoic Acid (DCHA), represented as -OOO-; misc_feature 23 K is covalently linked to the backbone; modified_base 1..23 OTHER; peptide nucleic acid) [γPNA3, site 2 gamma tail clamp PNA without NLS]”, the “tumor growth in comparison to the control groups” value in data set [5] is “significantly reduced tumor growth”. Moreover, in data set [5] (saline 21 days), the “survival of the mice” value is reported as 23 days.
